Experiment: xn = mol fraction of the nth substance listed

Nc1ccccc1 + CCCCCCCO
viscosity [mPa·s], 100 kPa
Details | x1 = 0.0821 | x1 = 0.1633 | x1 = 0.2429 | x1 = 0.3578 | x1 = 0.4421 | x1 = 0.5517 | x1 = 0.6514 | x1 = 0.7434 | x1 = 0.8522 | x1 = 0.9421
293.15 K | 6.21 | 5.64 | 5.21 | 4.74 | 4.45 | 4.11 | 3.94 | 3.86 | 3.86 | 4.1
303.15 K | 4.48 | 4.11 | 3.82 | 3.46 | 3.23 | 2.99 | 2.86 | 2.79 | 2.82 | 2.97
313.15 K | 3.31 | 3.05 | 2.85 | 2.61 | 2.46 | 2.3 | 2.22 | 2.19 | 2.22 | 2.34
323.15 K | 2.51 | 2.36 | 2.2 | 2.01 | 1.91 | 1.8 | 1.75 | 1.73 | 1.75 | 1.84

CCNCC + CCCCCCO
viscosity [mPa·s], 100 kPa
Details | x1 = 0.0806 | x1 = 0.1594 | x1 = 0.2398 | x1 = 0.3506 | x1 = 0.4394 | x1 = 0.559 | x1 = 0.6502 | x1 = 0.7392 | x1 = 0.8506 | x1 = 0.9401
293.15 K | 4.73 | 4.11 | 3.54 | 2.83 | 2.32 | 1.71 | 1.32 | 0.98 | 0.65 | 0.43
303.15 K | 3.45 | 3.02 | 2.59 | 2.08 | 1.7 | 1.27 | 1 | 0.75 | 0.52 | 0.37
313.15 K | 2.58 | 2.24 | 1.92 | 1.53 | 1.25 | 0.93 | 0.73 | 0.55 | 0.398 | 0.31
323.15 K | 1.97 | 1.71 | 1.46 | 1.16 | 0.95 | 0.71 | 0.56 | 0.44 | 0.33 | 0.27

COCCOCCOCCOC + CCCCCCO
101 kPa
Details | viscosity [mPa·s]
293.15 K, x1 = 0.04492 | 4.503
293.15 K, x1 = 0.09537 | 3.827
293.15 K, x1 = 0.1973 | 3.104
293.15 K, x1 = 0.2976 | 2.686
293.15 K, x1 = 0.4067 | 2.427
293.15 K, x1 = 0.5095 | 2.269
293.15 K, x1 = 0.6012 | 2.199
293.15 K, x1 = 0.6895 | 2.144
293.15 K, x1 = 0.7928 | 2.134
293.15 K, x1 = 0.8972 | 2.135
293.15 K, x1 = 0.9607 | 2.158
303.15 K, x1 = 0.04662 | 3.285
303.15 K, x1 = 0.09419 | 2.854
303.15 K, x1 = 0.2001 | 2.327
303.15 K, x1 = 0.2995 | 2.056
303.15 K, x1 = 0.4075 | 1.869
303.15 K, x1 = 0.5134 | 1.747
303.15 K, x1 = 0.5831 | 1.711
303.15 K, x1 = 0.6929 | 1.697
303.15 K, x1 = 0.7889 | 1.712
303.15 K, x1 = 0.9161 | 1.735
303.15 K, x1 = 0.9401 | 1.753
313.15 K, x1 = 0.04436 | 2.565
313.15 K, x1 = 0.09283 | 2.292
313.15 K, x1 = 0.2014 | 1.894
313.15 K, x1 = 0.2982 | 1.701
313.15 K, x1 = 0.41 | 1.56
313.15 K, x1 = 0.5102 | 1.491
313.15 K, x1 = 0.601 | 1.454
313.15 K, x1 = 0.6974 | 1.435
313.15 K, x1 = 0.8008 | 1.435
313.15 K, x1 = 0.8996 | 1.453
313.15 K, x1 = 0.9626 | 1.462

— the CheMixHub viscosity set
